# Test results reported in ChEMBL document CHEMBL2440076, “New triarylpyrazoles as broad-spectrum anticancer agents: design, synthesis, and biological evaluation” (Eur J Med Chem, 2013).
# Columns and labels:
# Format in all cases: functional
# Malme-3M = test: Growth inhibition of human MALME-3M cells assessed as cell growth at 3X10'-7 M after 48 hrs by sulforhodamine B assay; conditions: read-out: Activity
# NCI-H23 = test: Growth inhibition of human NCI-H23 cells assessed as cell growth at 3X10'-7 M after 48 hrs by sulforhodamine B assay; conditions: NCI-H23, 48 h, read-out: Activity
# SR = test: Growth inhibition of human SR cells assessed as cell growth at 3X10'-7 M after 48 hrs by sulforhodamine B assay; conditions: read-out: Activity
# RPMI-8226 [1] = test: Growth inhibition of human RPMI8226 cells assessed as cell growth at 3X10'-7 M after 48 hrs by sulforhodamine B assay; conditions: RPMI-8226, 48 h, read-out: Activity
# HL-60(TB) = test: Growth inhibition of human HL-60(TB) cells assessed as cell growth at 3X10'-7 M after 48 hrs by sulforhodamine B assay; conditions: HL-60, 48 h, read-out: Activity
# MDA-MB-468 = test: Growth inhibition of human MDA-MB-468 cells assessed as cell growth at 3X10'-8 M after 48 hrs by sulforhodamine B assay; conditions: MDA-MB-468, 48 h, read-out: Activity
# RXF 393 [2] = test: Growth inhibition of human RXF393 cells assessed as cell growth at 3X10'-8 M after 48 hrs by sulforhodamine B assay; conditions: RXF 393, 48 h, read-out: Activity
# A498 = test: Growth inhibition of human A498 cells assessed as cell growth at 3X10'-8 M after 48 hrs by sulforhodamine B assay; conditions: A498, 48 h, read-out: Activity
# LOX IMVI = test: Growth inhibition of human LOXIMVI cells assessed as cell growth at 3X10'-8 M after 48 hrs by sulforhodamine B assay; conditions: read-out: Activity
# COLO 205 = test: Growth inhibition of human COLO205 cells assessed as cell growth at 3X10'-8 M after 48 hrs by sulforhodamine B assay; conditions: COLO 205, 48 h, read-out: Activity
# UO-31 = test: Growth inhibition of human UO31 cells assessed as cell growth at 3X10'-5 M after 48 hrs by sulforhodamine B assay; conditions: UO-31, 48 h, read-out: Activity
# ACHN = test: Growth inhibition of human ACHN cells assessed as cell growth at 3X10'-5 M after 48 hrs by sulforhodamine B assay; conditions: read-out: Activity
# 786-0 [3] = test: Growth inhibition of human 786-0 cells assessed as cell growth at 3X10'-9 M after 48 hrs by sulforhodamine B assay; conditions: 786-0, 48 h, read-out: Activity
# SF-295 = test: Growth inhibition of human SF295 cells assessed as cell growth at 3X10'-5 M after 48 hrs by sulforhodamine B assay; conditions: SF-295, 48 h, read-out: Activity
# SW-620 = test: Growth inhibition of human SW620 cells assessed as cell growth at 3X10'-5 M after 48 hrs by sulforhodamine B assay; conditions: SW-620, 48 h, read-out: Activity
# HCT-15 = test: Growth inhibition of human HCT15 cells assessed as cell growth at 3X10'-5 M after 48 hrs by sulforhodamine B assay; conditions: HCT-15, 48 h, read-out: Activity
# MOLT-4 = test: Growth inhibition of human MOLT4 cells assessed as cell growth at 3X10'-5 M after 48 hrs by sulforhodamine B assay; conditions: MOLT-4, 48 h, read-out: Activity
# BT-549 = test: Growth inhibition of human BT549 cells assessed as cell growth at 3X10'-6 M after 48 hrs by sulforhodamine B assay; conditions: BT-549, 48 h, read-out: Activity
# PC-3 = test: Growth inhibition of human PC3 cells assessed as cell growth at 3X10'-6 M after 48 hrs by sulforhodamine B assay; conditions: PC-3, 48 h, read-out: Activity
# SNB-19 = test: Growth inhibition of human SNB19 cells assessed as cell growth at 3X10'-9 M after 48 hrs by sulforhodamine B assay; conditions: SNB-19, 48 h, read-out: Activity
# KM12 = test: Growth inhibition of human KM12 cells assessed as cell growth at 3X10'-9 M after 48 hrs by sulforhodamine B assay; conditions: KM12, 48 h, read-out: Activity
# HT-29 = test: Growth inhibition of human HT-29 cells assessed as cell growth at 3X10'-9 M after 48 hrs by sulforhodamine B assay; conditions: HT-29, 48 h, read-out: Activity
# RPMI-8226 [4] = test: Growth inhibition of human RPMI8226 cells assessed as cell growth at 3X10'-9 M after 48 hrs by sulforhodamine B assay; conditions: RPMI-8226, 48 h, read-out: Activity
# 786-0 [5] = test: Growth inhibition of human 786-0 cells assessed as cell growth at 3X10'-6 M after 48 hrs by sulforhodamine B assay; conditions: 786-0, 48 h, read-out: Activity
# UACC-257 = test: Growth inhibition of human UACC257 cells assessed as cell growth at 3X10'-6 M after 48 hrs by sulforhodamine B assay; conditions: UACC-257, 48 h, read-out: Activity
# [6] = Growth inhibition of human HCC2998 cells assessed as cell growth at 3X10'-6 M after 48 hrs by sulforhodamine B assay; conditions: HCC 2998, 48 h, read-out: Activity
# RXF 393 [7] = test: Growth inhibition of human RXF393 cells assessed as cell growth at 3X10'-7 M after 48 hrs by sulforhodamine B assay; conditions: RXF 393, 48 h, read-out: Activity
smiles,measurement,setting,value
COc1cc(-c2nn(-c3cccc(NC(=O)Nc4ccc(Cl)c(C(F)(F)F)c4)c3)cc2-c2ccncc2)ccc1Cl,growth at 0.3 µM,Malme-3M,96%
same,growth at 0.3 µM,NCI-H23,97%
same,growth at 0.3 µM,SR,98%
same,growth at 0.3 µM,RPMI-8226 [1],87%
same,growth at 0.3 µM,HL-60(TB),110%
same,growth at 0.03 µM,MDA-MB-468,90%
same,growth at 0.03 µM,RXF 393 [2],93%
same,growth at 0.03 µM,A498,93%
same,growth at 0.03 µM,LOX IMVI,100%
same,growth at 0.03 µM,COLO 205,103%
same,growth at 30 µM,UO-31,-28%
same,growth at 30 µM,ACHN,-4%
same,growth at 0.003 µM,786-0 [3],101%
same,growth at 30 µM,SF-295,-70%
same,growth at 30 µM,SW-620,-1%
same,growth at 30 µM,HCT-15,-35%
same,growth at 30 µM,MOLT-4,-15%
same,growth at 3 µM,BT-549,40%
same,growth at 3 µM,PC-3,-11%
same,growth at 0.003 µM,SNB-19,95%
same,growth at 0.003 µM,KM12,103%
same,growth at 0.003 µM,HT-29,105%
same,growth at 0.003 µM,RPMI-8226 [4],102%
same,growth at 3 µM,786-0 [5],28%
same,growth at 3 µM,UACC-257,20%
same,growth at 3 µM,[6],26%
same,growth at 0.3 µM,RXF 393 [7],88%
